This note sets out measurements from patent US4602006A, “Ynenolactone protease inhibitors” (Syntex (U.S.A.) Inc., priority 1984, dated 1986).

The assay has as its target T1, Human Leukocyte Elastase (Homo sapiens, UniProt P08246).
T1 construct: fresh human leukocytes were obtained from a healthy donor; from tissue; host or cells: human leukocytes from a healthy donor (homogenized)
T1 sequence (P08246 30-247 limits assumed): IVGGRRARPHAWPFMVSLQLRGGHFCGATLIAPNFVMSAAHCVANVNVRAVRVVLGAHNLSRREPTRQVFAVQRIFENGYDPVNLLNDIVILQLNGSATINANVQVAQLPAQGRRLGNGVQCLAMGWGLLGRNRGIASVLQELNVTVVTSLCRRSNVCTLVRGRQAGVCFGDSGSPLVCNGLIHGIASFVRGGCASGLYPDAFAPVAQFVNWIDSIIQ
The assay can be described thus: Inactivation of Human Leukocyte Elastase (fluorogenic substrate assay). It is filed as biochemical.

`C#C/C=C1\CC(Cc2ccccc2)C(=O)O1` (stereo not shown) [3-Benzyl-5(E)-(prop-2-ynylidene)tetrahydro-2-furanone]: the irreversibility of inactivation entry (0.24 nanomoles HL elastase + 4 microliters 2 mM inhibitor, 25° C., after 17 minutes chromatographed on Sephadex G-50) is reported as “irreversibility of this inactivation was shown”. In addition, for the setting “25° C., pH 7.8, substrate MeOSuc-Ala-Ala-Pro-Val-methylcoumarinamide, read-out: maximum inactivation rate”, the kinact stood at 0.09 s⁻¹. For the setting “half-maximal inactivation rate, 25° C., pH 7.8, read-out: inhibitor concentration required for half-maximal rate”, the KI (inactivation) was found to be 4.1 µM. Further, the “mode of enzyme inactivation” value (inhibitor added after recording the uninhibited rate) is “inactivated in a time and concentration dependent manner”.
